Data on 29 molecules can be found in patent publication US20030225152A1, “3-(Arylamino)methylene-1, 3-dihydro-2h-indol-2-ones as kinase inhibitors” (priority 2001, published 2003).

Assay [1] has as its target T1, cytoplasmic domain of the human VEGF receptor (VEGFR-2) (Homo sapiens, UniProt P35968).
T1 construct: The cytoplasmic domain of the human VEGF receptor (VEGFR-2) was expressed as a Histidine-tagged fusion protein; Histidine tag
Put plainly: KDR Assay. The class given is biochemical. As to conditions: His-VEGFR-2; 3.6 μM ATP. The method, boiled down:
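His-tagged human VEGFR-2 cytoplasmic domain from baculovirus-infected insect cells, acting on poly-Glu-Tyr (4:1)-coated plates with 3.6 μM ATP in Hepes pH 7.4 with MgCl2/MnCl2 and 5% final DMSO, 10 min at 25 °C. Phosphotyrosine detected by peroxidase-conjugated antibody ELISA at 492 nm; IC50 from blank-subtracted OD versus concentration.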

Assay [2] deals with VEGF induced increases in intracellular calcium levels in HUVEC (human umbilical vein endothelial cells). In words: VEGF Stimulated Ca++ Signal in vitro (FLIPR). It is filed as cell-based. As to conditions: VEGF 5 ng/mL; for pIC50: 0.01 to 10.0 μM. In a few lines: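 HUVEC loaded with Fluo-4 (45 min, 37° C.), washed, then pre-incubated 30 min with compound (10 μM single dose or 0.01–10.0 μM; 0.1% DMSO) before 5 ng/mL VEGF. Fluorescence at 516 nm read by FLIPR; IC50 from % inhibition of max-min VEGF response.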

Structures are written as SMILES. pIC50: −log10 of the molar value. Where only a bound is given, the exact number is not on record here.

T1 sequence (P35968 786-1356): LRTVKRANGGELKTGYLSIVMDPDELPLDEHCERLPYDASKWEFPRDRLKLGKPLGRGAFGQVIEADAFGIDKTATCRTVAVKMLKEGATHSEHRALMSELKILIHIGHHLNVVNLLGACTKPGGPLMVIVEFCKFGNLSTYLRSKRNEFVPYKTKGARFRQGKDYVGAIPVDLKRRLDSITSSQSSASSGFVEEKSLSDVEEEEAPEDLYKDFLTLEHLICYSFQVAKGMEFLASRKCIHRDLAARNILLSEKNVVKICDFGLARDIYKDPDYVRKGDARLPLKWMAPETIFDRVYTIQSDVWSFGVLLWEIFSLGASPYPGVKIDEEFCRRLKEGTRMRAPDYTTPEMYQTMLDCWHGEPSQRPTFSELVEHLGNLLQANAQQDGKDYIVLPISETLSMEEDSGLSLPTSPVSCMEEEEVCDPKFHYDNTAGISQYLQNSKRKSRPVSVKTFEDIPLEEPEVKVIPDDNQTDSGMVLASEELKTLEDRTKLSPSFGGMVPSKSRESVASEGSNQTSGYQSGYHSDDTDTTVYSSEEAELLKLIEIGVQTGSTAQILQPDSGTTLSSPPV

For the molecule `O=C1Nc2ccc(Cl)cc2C1=CNc1ccc(CCN2CCCCC2)cc1` [Example 285, 5-Chloro-3-{[4-(2-piperidin-1-yl-ethyl)-phenylamino]-methylene}-1,3-dihydro-indol-2-one], the figures for the pIC50 in assay [1], in assay [2] and in assay [2] (Homo sapiens) were 6.96, 6.25 and no less than 6.00, respectively.
For `CC(=O)Nc1ccc(NC=C2C(=O)Nc3ccccc32)cc1` [Example 34, 3-[(4-Acetanilidylamino)-methylene]-1,3-dihydro-indol-2-one], in assay [1], the pIC50 (in general, −log10 of the IC50, conventionally taken in molar units) is 6.33. For the same molecule, in assay [2] (Homo sapiens), the inhibition – broadly, the change of the read-out against control, counted positive when it falls – at 10 µM stood at 94.5% and the pIC50 is 5.65.
Molecule `O=C1Nc2ccccc2C1=CNc1cccc(S(=O)(=O)N(CCO)CCO)c1` [Example 190, N,N-Bis-(2-hydroxy-ethyl)-3-[(2-oxo-1,2-dihydro-indol-3-ylidenemethyl)-amino]-benzenesulfonamide] had a pIC50 in assay [1] of 5.16. Besides, in assay [2] (Homo sapiens), the inhibition at 10 µM was found to be 54.1% and the pIC50 was 5.00.
For `COc1cccc(NC=C2C(=O)Nc3ccc(Cl)cc32)c1` [Example 57, 5-Chloro-3-[(3-methoxy-phenylamino)-methylene]-1,3-dihydro-indol-2-one] the same measures were 5.73, 60% and 5.23.
On to `O=C1Nc2ccc(Cl)cc2C1=CNc1ccc(OCCN2CCCCC2)cc1` [Example 262, 5-Chloro-3-{[4-(2-piperidin-1-yl-ethoxy)-phenylamino]-methylene}-1,3-dihydro-indol-2-one], for which the pIC50 in assay [1] is 6.68; in assay [2], 6.06; in assay [2] (Homo sapiens) it was no less than 6.00.
As to `CCN(CC)c1ccc(NC=C2C(=O)Nc3ccccc32)cc1` [Example 188, 3-[(4-Diethylamino-phenylamino)-methylene]-1,3-dihydro-indol-2-one], the values for the pIC50 in assay [1], in assay [2] and in assay [2] (Homo sapiens) were 6.74, 6.28 and no less than 6.00, respectively. In assay [2] (Homo sapiens), the inhibition at 10 µM is 98%.
`CCc1ccc(NC=C2C(=O)Nc3cccc(C)c32)cc1` [Example 151, 3-[(4-Ethyl-phenylamino)-methylene]-4-methyl-1,3-dihydro-indol-2-one] showed a pIC50 in assay [1] of 6.34. For the same molecule, the inhibition at 10 µM in assay [2] (Homo sapiens) was 50.8%.
Molecule `COc1ccc(NC=C2C(=O)Nc3ccc(Cl)cc32)cc1` [Example 73, 3-[(4-Methoxyphenylamino)-methylene]-5-chloro-1,3-dihydro-indol-2-one] gave a pIC50 in assay [1] of 6.59. In assay [2] (Homo sapiens), the inhibition at 10 µM was 56.5% and the pIC50 is 5.44.
Turning to `CN1CCN(CCCOc2ccc(NC=C3C(=O)Nc4ccccc43)cc2)CC1` [Example 217, 3-({4-[3-(4-Methyl-piperazin-1-yl)-propoxy]-phenylamino}-methylene)-1,3-dihydro-indol-2-one], the pIC50 in assay [1] is 6.55; in assay [2], 6.07; in assay [2] (Homo sapiens), no less than 6.00. The inhibition at 10 µM in assay [2] (Homo sapiens) is 97.7%.
With `O=C1Nc2ccccc2C1=CNc1ccc(OCCCN2CCSCC2)cc1` [Example 225, 3-{[4-(3-Thiomorpholin-4-yl-propoxy)-phenylamino]-methylene}-1,3-dihydro-indol-2-one], the negative logarithm of the IC50 (pIC50) in assay [1] was 6.54; in assay [2], 6.25; in assay [2] (Homo sapiens), no less than 6.00. Moreover, in assay [2] (Homo sapiens), the inhibition at 10 µM was 95.7%.
In assay [1], `O=C1Nc2ccccc2C1=CNc1ccc(N2CCOCC2)c(C(=O)O)c1` [Example 195, 2-Morpholin-4-yl-5-[(2-oxo-1,2-dihydro-indol-3-ylidenemethyl)-amino]-benzoic acid] gave a pIC50 of 6.02. Further, in assay [2] (Homo sapiens), the inhibition at 10 µM is 91.1% and the pIC50 was 5.33.
Take `COc1cccc(-c2ccc3c(c2)NC(=O)C3=CNc2ccc(OCCCN3CCCCC3)cc2)c1` [Example 276, 6-(3-Methoxy-phenyl)-3-{[4-(3-piperidin-1-yl-propoxy)-phenylamino]-methylene}-1,3-dihydro-indol-2-one]: the pIC50 was 6.66 in assay [1] and 5.06 in assay [2] (Homo sapiens).
In the case of `O=C1Nc2cccc(F)c2C1=CNc1ccc(CN2CCCCC2)cc1` [Example 257, 4-Fluoro-3-[(4-piperidin-1-ylmethyl-phenylamino)-methylene]-1,3-dihydro-indol-2-one], the pIC50 in assay [1] is 6.29; in assay [2] (Homo sapiens) it was 5.79.
In the case of `O=C1Nc2ccccc2C1=CNc1ccc2ncsc2c1` [Example 43, 3-[(6-Benzthioazolylamino)-methylene]-1,3-dihydro-indol-2-one], in assay [1], the negative-log IC50 (pIC50) is 6.64. In assay [2] (Homo sapiens), the inhibition at 10 µM worked out at 84% and the pIC50 was 5.76.
Consider `O=C1Nc2ccc(Cl)cc2C1=CNc1ccc(OCCN2CCCC2)cc1` [Example 275, 5-Chloro-3-{[4-(2-pyrrolidin-1-yl-ethoxy)-phenylamino]-methylene}-1,3-dihydro-indol-2-one], for which the pIC50 is 6.89 in assay [1], 6.21 in assay [2] and no less than 6.00 in assay [2] (Homo sapiens).
In assay [1], `COc1ccc(NC=C2C(=O)Nc3ccc(F)cc32)cc1F` [Example 172, 5-Fluoro-3-[(3-fluoro-4-methoxy-phenylamino)-methylene]-1,3-dihydro-indol-2-one] had a pIC50 of 6.16. Further, in assay [2] (Homo sapiens), the inhibition at 10 µM was 93.3% and the pIC50 was 5.85.
On to `CSc1ccc(NC=C2C(=O)Nc3ccc(Cl)cc32)cc1` [Example 138, 5-Chloro-3-[(4-methylsulfanyl-phenylamino)-methylene]-1,3-dihydro-indol-2-one], for which the pIC50 is 6.14 in assay [1] and 5.15 in assay [2] (Homo sapiens). The inhibition at 10 µM in assay [2] (Homo sapiens) came out at 80.9%.
The molecule `NS(=O)(=O)c1ccc(NC=C2C(=O)Nc3ccc(Cl)cc32)cc1` [Example 116, 4-[(5-Chloro-2-oxo-1,2-dihydro-indol-3-ylidenemethyl)-amino]-benzenesulfonamide] showed a pIC50 in assay [1] of 6.01. Further, in assay [2] (Homo sapiens), the inhibition at 10 µM came to 99.4% and the pIC50 was 5.79.
For `O=C1Nc2ccc(Cl)cc2C1=CNc1ccc2[nH]ccc2c1` [Example 110, 5-(5-Chloro-2-oxo-1,2-dihydro-indol-3-ylidenemethylamino)indole] the same measures were 6.24, 95% and 5.81.
Consider `O=C1Nc2ccc(Cl)cc2C1=CNc1ccc(CO)cc1` [Example 111, 5-Chloro-3-[(4-(hydoxymethyl)phenylamino)-methylene]-1,3-dihydro-indol-2-one], for which the pIC50 was 6.37 in assay [1] and 5.93 in assay [2] (Homo sapiens). In addition, the inhibition at 10 µM in assay [2] (Homo sapiens) is 98.5%.
As for `Cc1cccc2c1C(=CNc1ccccc1)C(=O)N2` [Example 58, 4-Methyl-3-phenylaminomethylene-1,3-dihydro-indol-2-one], the pIC50 in assay [1] is 6.44; in assay [2] it was 6.09; in assay [2] (Homo sapiens) it was no less than 6.00. For the same molecule, the inhibition at 10 µM in assay [2] (Homo sapiens) came out at 86.6%.
As for `Cc1cccc2c1C(=CNc1ccc(NC(=O)OC(C)(C)C)cc1)C(=O)N2` [Example 187, {4-[(4-Methyl-2-oxo-1,2-dihydro-indol-3-ylidenemethyl)-amino]-phenyl}-carbamic acid tert-butyl ester], the pIC50 in assay [1] was 6.57. Moreover, in assay [2] (Homo sapiens), the inhibition at 10 µM came out at 96.8% and the pIC50 was 5.78.
In assay [1], `COc1cccc(NC=C2C(=O)Nc3ccccc32)c1` [Example 94, 3-[(3-Methoxy-phenylamino)-methylene]-1,3-dihydro-indol-2-one] gave a pIC50 of 6.19. In assay [2] (Homo sapiens), the inhibition at 10 µM was 92.5% and the pIC50 was 5.41.
Consider `CCOc1ccc(NC=C2C(=O)Nc3ccccc32)cc1` [Example 82, 3-[(4-Ethoxyphenylamino)-methylene]-1,3-dihydro-indol-2-one], for which the pIC50 in assay [1] is 6.42; in assay [2] (Homo sapiens), 5.60.
Turning to `O=C1Nc2ccccc2C1=CNc1ccc(OCCCCN2CCSCC2)cc1` [Example 226, 3-{[4-(4-Thiomorpholin-4-yl-butoxy)-phenylamino]-methylene}-1,3-dihydro-indol-2-one], the pIC50 in assay [1] is 6.55; in assay [2] it was 6.15; in assay [2] (Homo sapiens) it was no less than 6.00. For the same molecule, in assay [2] (Homo sapiens), the inhibition at 10 µM turned out to be 98%.
For `O=C1Nc2ccc(Cl)cc2C1=CNc1ccc(N2CCOCC2)cc1` [Example 106, 5-Chloro-3-[(4-morpholinophenylamino)-methylene]-1,3-dihydro-indol-2-one] the same measures were 6.64, 6.22, no less than 6.00 and 96.6%.
`O=C1Nc2ccccc2C1=CNc1cccc(CO)c1` [Example 184, 3-[(3-Hydroxymethyl-phenylamino)-methylene]-1,3-dihydro-indol-2-one]: the pIC50 in assay [1] was 6.21. Besides, in assay [2] (Homo sapiens), the inhibition at 10 µM amounted to 98.2% and the pIC50 is 5.81.
In turn, `CCOc1ccc(NC=C2C(=O)Nc3cccc(C)c32)cc1` [Example 122, 3-[(4-Ethoxy-phenylamino)-methylene]-4-methyl-1,3-dihydro-indol-2-one] gave a pIC50 in assay [1] of 6.43. Moreover, in assay [2] (Homo sapiens), the inhibition at 10 µM is 71.7% and the pIC50 is 5.81.
For `O=C(O)CCc1ccc(NC=C2C(=O)Nc3ccccc32)cc1` [Example 144, 3-{4-[(2-Oxo-1,2-dihydro-indol-3-ylidenemethyl)-amino]-phenyl}-propionic acid] the same measures were 6.34, 96.5% and 5.57.
